Measurements taken from US20040014730A1, “Formulations and methods of reducing toxicity of anti-infective agents” (priority 2002, published 2004).

Tests used:
humans = conditions: human, in vivo
[1] = Stability in acidic and basic aqueous media (proton NMR); assay type: physicochemical; conditions: for stability in aqueous solution: pH 1.5 to 9.0
Protocol: The stability of 2,2′-dithio-bis-ethane sulfonate at room temperature was determined at pH ranges of 1.5 to 9.0.
The following experiment was performed to determine the stability of 2,2′-dithio-bis-ethane sulfonate in acidic and basic aqueous media. In a typical experiment, 50 mg of 2,2′-dithio-bis-ethane sulfonate (as produced by using the above described method) was dissolved in one ml of water and the pH was adjusted to 1.5, 2.0, 3.0, 4.0, 5.0 and 6.0 by adding 1 N hydrochloric acid in water or the pH was adjusted to 8.0 and 9.0 by adding 1 N sodium hydroxide in water. The reaction mixture was stirred for 24 hours at room temperature, the water was removed at reduced pressure, dissolved in spectral grade D2O, and the proton NMR spectrum was recorded.
The stability of 2,2′-dithio-bis-ethane sulfonate at pH 1.5 was further studied by heating the reaction mixture to 100 degrees Celsius for 10 minutes.

mice = conditions: mouse, in vivo, iv
dogs = conditions: dog, in vivo, iv
[2] = cited from earlier work

SMILES: O=S(=O)([O-])CCSSCCS(=O)(=O)[O-].[Na+].[Na+] [Dimesna, disodium 2,2′-dithiobis ethane sulfonate]
- dose administered with no adverse effects (humans): exceeding 25 g/m^2
- proton NMR spectrum after stirring in aqueous solution ([1]; 50 mg in one ml water, pH 1.5, 2.0, 3.0, 4.0, 5.0, 6.0, 8.0 and 9.0, 24 hours, room temperature): no additional peaks were observed
- proton NMR spectrum after heating ([1]; pH 1.5, 100 degrees Celsius for 10 minutes): No change in the proton spectrum
- stability in aqueous solution ([1]; room temperature, listed as 2,2′-Dithio-bis-ethane sulfonate): very stable
- stability in aqueous solution ([1]; room temperature, listed as 2,2′-dithio-bis-ethane sulfonate): stable
- dose administered intravenously with no adverse effects (mice): > 3750 mg/kg
- dose administered intravenously with no adverse effects (dogs): > 3750 mg/kg

SMILES: [Cl-].[Na+] [common table salt]
- accepted oral LD50 [2]: 3750 mg/kg
